In one experiment the test system is A431 cells. The experiment in a line: A431 Cell Growth Inhibition Test (MTT Assay). The class given is cell-based, human. The note with it: Homo sapiens; for inhibition at 1 µM: A-431, 68 h, compound 1 μM, 68 h incubation, read-out: Growth Inhibition Ratio (%). On the procedure:
A431 Cell Growth Inhibition Test (MTT Assay)
1. Cell strains: A431 (human epithelial […] cell strains);
Culture medium: 45% DMEM, 45% F12+10% FBS;
(§1) 1. A plate (10 cm) of cells in logarithmic growth phase normally cultured was collected;
(§2) 2. The culture solution was sucked out. The plate was washed with 5 ml of PBS 1-2 times;
3. PBS was sucked out, and 2 ml of 0.25% pancreatin was added to infiltrate the cells for 1 min;
4. The pancreatin was sucked out, and the culture plate was placed in an incubator. Digestion was carried out for about 15 min at 37° C.;
5. 4 ml of complete culture solution was added in the culture plate to stop the digestion. The cells were carefully scoured with micropipette (1 ml) to give a uniform cell suspension. The suspension was implanted into a 96-well cell culture plate by 2500 cells/100 μl per well. The culture plate was incubated overnight under 5% CO2 at 37° C. In day 2, 100 μl of culture solution comprising the compound was added in each well, and further incubated for 68 h under 5% CO2 at 37° C.
(§3) 6. The culture solution was sucked out;
7. 100 μl of serum-free culture solution containing 0.5 mg/ml MTT was added in each well, and incubated for 4 h;
(§4) 8. The culture solution was carefully sucked out;
9. 100 μl of DMSO was added into each well and vibrated to dissolve;
(§5) 10. OD values were determined at 490 nM.
(§6) 1. Calculation of Relative Inhibition Ratio The inhibition ratio of a compound on cell growth=(PC−n)/(PC−NC)×100%
IC50: concentration of a compound where inhibition ratio was 50%. IC50 values were fitted with Origin7.5.

The subject of the next experiment is BT-474 cells. Briefly: BT-474 Cell Growth Inhibition Test (SRB Assay). The class given is cell-based, human. Conditions: Homo sapiens, 70 h incubation; for inhibition at 1 µM: BT-474, 70 h, compound 1 μM, read-out: Growth Inhibition Ratio (%). On the procedure: BT-474 Cell Growth Inhibition Test (SRB Assay)
1. Cell strains: BT-474 (human breast tumor cell strains);
2. SRB: available from Sigmaaldrich, goods number: S9012, lot number: 047K3751. SRB was reserved at the room temperature. 0.4% (w/v) of working solution was formulated with 1% of glacial acetic acid. The solution was reserved at the temperature of 4° C.; anti-tumor compounds; DMSO.
Culture medium (90% EMEM+10% FBS+0.1 mM NEAA, reserved at 4° C.);
1. A plate (10 cm) of cells in logarithmic growth phase normally cultured was collected. The culture solution was sucked out. The plate was washed with 5 mL of PBS 1-2 times;
2. PBS was sucked out, and […] of 0.25% pancreatin was added to infiltrate the cells for 30 s;
3. The pancreatin was sucked out. The culture plate was pleaced in an incubator. Digestion was carried out for about 5 min at 37° C.;
4. 3 mL of complete culture solution was added to the culture plate to stop the digestion. The cells were carefully scoured with micropipette (1 ml) to give a uniform single cell suspension;
5. Cell suspension was counted. The suspension was diluted to 1×10^5/ml. The resulting suspension was developed uniformly on a plate. The plate was incubated under 5% CO2 at 37° C. overnight. In day 2, 80 μL of complete culture medium was added in each well and then 20 μL of culture solution comprising a compound was added. The mixture was incubated for 70 h under 5% CO2 at 37° C.
6. The culture solution was sucked out. 100 uL of TCA fixed cells which were diluted to 10% were added to each well. The plate was kept in a refrigerator for 1 h at 4° C.
7. TCA stationary liquid was sucked out. Each well was washed with 150 μL of ddH2O five times;
8. After the stationary liquid was cleansed, the plate was dried in the air at the room temperature;
9. 60 μL of SRB staining solution was added in each well. The well was stained for 15 min at the room temperature;
10. The SRB staining solution was sucked out. Each well was washed with 150 μL of 1% glacial acetic acid five times;
11. After the SRB staining solution was cleansed, the plate was dried in the air at the room temperature;
12. 100 μL of 10 mM Tris was added in each well. The plate was vibrated to dissolve out SRB;
13. OD values were determined at 570 nM.
as §6
(§7) IC50: Concentration of a compound where inhibition ratio was 50%. IC50 values were fitted with Origin7.5.

In a further experiment the test system is A549 cells. The experiment in a line: A549 Cell Growth Inhibition Test (MTT Assay). In kind it is cell-based. Conditions: Homo sapiens, 72 h incubation. Here is the method:
A549 Cell Growth Inhibition Test (MTT Assay)
1. Cell strains: […] (human lung caner cell strains);
Culture medium: 90% F12K+10% FBS;
as §1
2. The culture solution was sucked out. Tthe plate was washed with 5 ml of PBS 1-2 times;
(§8) 3. PBS was sucked out. 2 ml of 0.25% pancreatin was added to infiltrate the cells for 1 min;
(§9) 4. The pancreatin was sucked out. The culture plate was placed in an incubator. Digestion was carried out for about 2 min at 37° C.;
(§10) 5. 4 ml of complete culture solution was added to the culture plate to stop the digestion. The cells were carefully scoured with micropipette (1 ml) to give a uniform cell suspension. The suspension was implanted into a 96-well cell culture plate by 2500 cells/100 μl per well. The culture plate was incubated overnight under 5% CO2 at 37° C. In day 2, 100 μl of culture solution comprising a compound was added in each well, and further incubated for 72 h under 5% CO2 at 37° C.
as §3
(§11) 7. 100 μl of serum-free culture solution containing 0.5 mg/ml MTT was added in each well, and incubated for 3 h;
as §4
(§12) 9. 100 μl of DMSO was added in each well and vibrated to dissolve;
as §5, §6, §7

Another experiment relates to NCI-H460 cells. The experiment in a line: NCI-H460 Cell Growth Inhibition Test (MTT Assay). The class given is cell-based. Conditions: Homo sapiens, 72 h incubation. Here is the method:
NCI-H460 Cell Growth Inhibition Test (MTT Assay)
1. Cell strains: NCI-H460 (human large cell lung cancer cell strains);
as §1, §2, §8, §9, §10, §3, §11, §4, §12, §5, §6, §7

Consider `CN(C)C/C=C/C(=O)Nc1cc2c(Nc3ccc(OCc4cccc(F)c4)c(Cl)c3)c(C#N)cnc2cc1OC1CCOC1` (mixture of isomers) [Example 180, (E/Z)-N-(4-(4-(3-FLUOROBENZYLOXY)-3-CHLOROPHENYLAMINO)-3-CYANO-7-(TETRAHYDROFURAN-3-YL-OXY)QUINOLIN-6-YL)-4-(DIMETHYLAMINO)-BUT-2-ENAMIDE], for which the inhibition at 1 µM in the experiment on A431 cells came out at 73%; in the experiment on BT-474 cells, 78%.
On to `C#Cc1cccc(Nc2c(C#N)cnc3cc(O[C@H]4CCOC4)c(NC(=O)/C=C/CN(C)CCO)cc23)c1` [Example 190, (S,E)-N-(3-CYANO-4-(3-ETHYNYLPHENYLAMINO)-7-(TETRAHYDROFURAN-3-YL-OXY)QUINOLIN-6-YL)-4-(N-METHYLETHANOLAMINO)-BUT-2-ENAMIDE], for which, in the experiment with A431 cells, the inhibition at 1 µM was 79%. The midpoint of inhibition in the experiment on BT-474 cells, the IC50, lay at 267 nM.
Regarding `CN(C)C/C=C/C(=O)Nc1cc2c(Nc3ccc(F)c(Cl)c3)c(C#N)cnc2cc1Oc1cccnc1` [Example 174, (E)-N-(4-(3-CHLORO-4-FLUOROPHENYLAMINO)-3-CYANO-7-(PYRIDIN-3-YL-OXY)QUINOLIN-6-YL)4-(DIMETHYLAMINO)-BUT-2-ENAMIDE], the IC50 in the experiment on A549 cells came to 3700 nM; in the experiment with A431 cells (A-431, 68 h incubation), 950 nM; in the experiment with NCI-H460 cells it was 3000 nM.
Regarding `Cc1ccccc1COc1ccc(Nc2c(C#N)cnc3cc(O[C@H]4CCOC4)c(NC(=O)/C=C/CN(C)C)cc23)cc1Cl` [Example 166, (S,E)-N-(4-(4-(2-METHYLBENZYLOXY)-3-CHLOROPHENYLAMINO)-3-CYANO-7-(TETRAHYDROFURAN-3-YL-OXY)QUINOLIN-6-YL)-4-(DIMETHYLAMINO)-BUT-2-ENAMIDE], the inhibition at 1 µM in the experiment on A431 cells and with BT-474 cells was 69% in each case.

As usually defined, the IC50 is the concentration at which inhibition is half-maximal. Higher therefore signals lower potency.

Values taken from patent publication US9187458B2, “Cyanoquinoline derivatives” (Tianjin Hemay Bio-Tech Co., LTD., priority 2010, dated 2015).
